Laboratory results: patent publication US20110178104A1, “Anti-Heparin Compounds” (POLYMEDIX INC., priority 2010, published 2011)

Legend:
[1] = test system: unfractionated heparin (UFH); test: aPTT clotting assay, UFH 0.2 U/mL in plasma (Example 7); format: biochemical; conditions: UFH 0.2 U/mL in plasma
Method: aPTT clotting Assay. Unfractionated heparin was mixed with plasma at a final concentration of 0.2 U/mL. […] The ACL Elite Hemostasis analyzer (Beckman Coulter™) was used to add aPTT reagent (HemosIL SynthASil) to supplemented plasma. Clotting was initiated by addition of CaCl2 and time to clot was recorded.

enoxaparin (ENOX) = test: FXa chromogenic assay (absence of plasma), enoxaparin; conditions: enoxaparin 0.1 μg/mL, absence of plasma
Method: Human antithrombin was mixed with an anticoagulant agent (a LMWH or fondaparinux); final concentrations were 0.22 μg/mL for the LMWHs and 0.07 μg/mL for fondaparinux. […] Absorbance was read every 30 seconds over a 4 minute period in a SpectraMax 250 instrument (Molecular Devices, Inc.). EC50 values are determined by a curve-fit program (SoftMax Pro) using the following formula:
FXa Chromogenic Assay (absence of plasma). Human antithrombin was mixed with an anticoagulant (a LMWH or fondaparinux); final concentrations were 0.1 μg/mL for the LMWHs and 0.02 μg/mL for fondaparinux. […] Absorbance was read every 30 seconds over a 4 minute period in a SpectraMax 250 instrument (Molecular Devices Inc.™) The slope of absorbance vs time was calculated for each compound concentration. EC50 values were determined using a curve fit program (GraphPad Prism 5).

fondaparinux (FONDAPX) = test: FXa chromogenic assay (absence of plasma), fondaparinux; conditions: fondaparinux 0.02 μg/mL, absence of plasma

Structure (SMILES) | UFH (aPTT) EC50 [1] | ENOX (FXa) EC50 (enoxaparin (ENOX)) | FONDAPX (FXa) EC50 (fondaparinux (FONDAPX))
COc1ccc(C(=O)N[C@@H](CCCCN)C(=O)Nc2ccc(OC)c(C(=O)N[C@@H](CCCCN)C(=O)Nc3ccc(OC)c(C(=O)N[C@@H](CCCCN)C(=O)Nc4ccc(OC)c(C(N)=O)c4)c3)c2)cc1NC(=O)[C@@H](N)CCCCN [Compound 99] | 1.54 µg/mL | 0.2998 µg/mL | 6.132 µg/mL
COc1ccc(NC(=O)[C@H](CCCCN)NC(=O)c2cc(NC(=O)[C@H](CCCCN)NC(=O)c3cc(NC(=O)[C@H](CCCCN)NC(=O)c4c[nH]c5ccccc45)ccc3OC)ccc2OC)cc1C(N)=O [Compound 100] | 7.13 µg/mL | 1.12 µg/mL | 2.482 µg/mL
COc1ccc(NC(=O)[C@H](CCCCN)NC(=O)c2cc(NC(=O)[C@H](CCCCN)NC(=O)c3cc(NC(=O)[C@H](CCCCN)NC(=O)c4cc(NC(=O)[C@@H](N)Cc5c[nH]c6ccccc56)ccc4OC)ccc3OC)ccc2OC)cc1C(N)=O [Compound 101] | approx 16 μg/mL | 0.8434 µg/mL | 4.158 µg/mL
COc1ccc(NC(=O)[C@H](CCCCN)NC(=O)c2cc(NC(=O)[C@H](CCCCN)NC(=O)c3cc(NC(=O)[C@H](CCCCN)NC(=O)c4cc(C(=O)NCCCCCN)c(OC)cc4OC)ccc3OC)ccc2OC)cc1C(N)=O [Compound 102] | 3.32 µg/mL | 0.3328 µg/mL | 2.938 µg/mL
COc1cc(OC)c(C(=O)N[C@H]2CC[C@@H](NC(=O)c3cc(C(=O)NCCN(C)C)c(OCCCCCNC(=N)N)cc3OCCCCCNC(=N)N)CC2)cc1C(=O)N[C@H]1CC[C@@H](NC(=O)c2cc(C(=O)NCCN(C)C)c(OCCCCCNC(=N)N)cc2OCCCCCNC(=N)N)CC1 [Compound 103] | >4 µg/mL | 0.23 µg/mL | 0.64 µg/mL
COc1cc(OC)c(C(=O)N[C@H]2CC[C@H](NC(=O)c3cc(C(=O)NCCN(C)C)c(OCCCCCNC(=N)N)cc3OCCCCCNC(=N)N)CC2)cc1C(=O)N[C@H]1CC[C@@H](NC(=O)c2cc(C(=O)NCCN(C)C)c(OCCCCCNC(=N)N)cc2OCCCCCNC(=N)N)CC1 [Compound 104] | >10 µg/mL | 0.36 µg/mL | 2.02 µg/mL
COc1cc(OC)c(C(=O)N[C@H]2CC[C@@H](NC(=O)c3cc(C(=O)NCCN(C)C)c(OCCNC(=N)N)cc3OCCNC(=N)N)CC2)cc1C(=O)N[C@H]1CC[C@@H](NC(=O)c2cc(C(=O)NCCN(C)C)c(OCCNC(=N)N)cc2OCCNC(=N)N)CC1 [Compound 105] | Inactive | 2.07 µg/mL | >20 µg/mL
COc1cc(OC)c(C(=O)N[C@H]2CC[C@H](NC(=O)c3cc(C(=O)NCCN(C)C)c(OCCNC(=N)N)cc3OCCNC(=N)N)CC2)cc1C(=O)N[C@H]1CC[C@H](NC(=O)c2cc(C(=O)NCCN(C)C)c(OCCNC(=N)N)cc2OCCNC(=N)N)CC1 [Compound 106] | Inactive | 1.66 µg/mL | >20 µg/mL
COc1ccc(NC(=O)[C@H](CCCCN)NC(=O)c2cc(NC(=O)[C@H](CCCCN)NC(=O)c3cc(NC(=O)[C@H](CCCCN)NC(=O)c4cc(NC(=O)[C@@H](N)CCCCN)ccc4OC)ccc3OC)ccc2OC)cc1C(=O)NCC(=O)O [Compound 107] | 1.34 µg/mL | 0.498 µg/mL | 6.961 µg/mL
COc1ccc(NC(=O)[C@H](CCCCN)NC(=O)c2cc(NC(=O)[C@H](CCCCN)NC(=O)c3cc(NC(=O)[C@H](CCCCN)NC(=O)c4cc(NC(=O)[C@@H](N)CCCCN)ccc4OC)ccc3OC)ccc2OC)cc1C(=O)NCCC(=O)O [Compound 108] | 1.50 µg/mL | 0.6085 µg/mL | 10.57 µg/mL
COc1ccc(NC(=O)[C@H](CCCCN)NC(=O)c2cc(NC(=O)[C@H](CCCCN)NC(=O)c3cc(NC(=O)[C@H](CCCCN)NC(=O)c4cc(NC(=O)[C@@H](N)CCCCN)ccc4OC)ccc3OC)ccc2OC)cc1C(=O)N[C@@H](C)C(=O)O [Compound 109] | 2.23 µg/mL | 0.6089 µg/mL | 9.853 µg/mL
COc1ccc(NC(=O)[C@H](CCCCN)NC(=O)c2cc(NC(=O)[C@H](CCCCN)NC(=O)c3cc(NC(=O)[C@H](CCCCN)NC(=O)c4cc(NC(=O)[C@@H](N)CCCCN)ccc4OC)ccc3OC)ccc2OC)cc1C(=O)N[C@@H](Cc1ccccc1)C(=O)O [Compound 110] | 2.31 µg/mL | 0.694 µg/mL | 2.951 µg/mL
COc1ccc(NC(=O)[C@H](CCCCN)NC(=O)c2cc(NC(=O)[C@@H](N)CCCCN)ccc2OC)cc1C(=O)N[C@@H](CCCCN)C(=O)Nc1ccc(OC)c(C(=O)N[C@@H](CCCCN)C(=O)Nc2ccc(OC)c(C(=O)N[C@H](Cc3ccccc3)C(=O)O)c2)c1 [Compound 111] | 2.54 µg/mL | 1.348 µg/mL | >20 µg/mL
